Experimental data: US12370235B2, “Synthetic, non-natural antimicrobial peptides inspired by Staphylococcus auricularis delta toxin” (University of Saskatchewan, priority 2021, dated 2025)
Like-named read-outs stand apart in the source and are kept apart here. Ends that are not written are not given here.

Legend:
[1] = tested on: S. aureus ATCC BAA-1683 (MRSA SCCmec type IV); experiment: MIC, broth dilution; assay type: cell-based, Staphylococcus aureus; details: Table 5; STIP3 variants, highest concentration 100 μg/mL
Method in brief: (§1)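 Peptides (95% purity) were serially diluted 2-fold and mixed with bacteria diluted to OD 6×10^−4 in cation-adjusted Mueller Hinton broth. Standing cultures were incubated overnight at 37° C. MIC was the lowest peptide concentration with no observed growth.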

S. aureus ATCC 29213 = experiment: MIC, broth dilution; assay type: cell-based, Staphylococcus aureus; details: Table 5; STIP3 variants, highest concentration 100 μg/mL
Method in brief: as §1

[2] = tested on: S. aureus ATCC BAA-44 (MRSA SCCmec type I); experiment: MIC, broth dilution; assay type: cell-based, Staphylococcus aureus; details: Table 5; STIP3 variants, highest concentration 100 μg/mL
Method in brief: as §1

[3] = tested on: S. aureus ATCC 33592 (MRSA SCCmec type III); experiment: MIC, broth dilution; assay type: cell-based, Staphylococcus aureus; details: Table 5; STIP3 variants, highest concentration 100 μg/mL
Method in brief: as §1

[4] = tested on: S. aureus ATCC BAA-42 (MRSA SCCmec type VI); experiment: MIC, broth dilution; assay type: cell-based, Staphylococcus aureus; details: Table 5; STIP3 variants, highest concentration 100 μg/mL
Method in brief: as §1

[5] = tested on: S. aureus ATCC BAA-2313 (MRSA SCCmec type XI); experiment: MIC, broth dilution; assay type: cell-based, Staphylococcus aureus; details: Table 5; STIP3 variants, highest concentration 100 μg/mL
Method in brief: as §1

[6] = tested on: S. aureus ATCC BAA-41 (MRSA SCCmec type II); experiment: MIC, broth dilution; assay type: cell-based, Staphylococcus aureus; details: Table 5; STIP3 variants, highest concentration 100 μg/mL
Method in brief: as §1

[7] = tested on: S. aureus bovid isolate (RDM-1); experiment: MIC, broth dilution; assay type: cell-based, Staphylococcus aureus; details: clinical isolate
Method in brief: as §1

[8] = tested on: S. aureus ATCC BAA-2094 (MRSA SCCmec type V); experiment: MIC, broth dilution; assay type: cell-based, Staphylococcus aureus; details: Table 5; STIP3 variants, highest concentration 100 μg/mL
Method in brief: as §1

M. luteus ATCC 4698 = experiment: MIC, broth dilution; assay type: cell-based, Micrococcus luteus
Method in brief: as §1

Klebsiella pneumoniae = experiment: MIC, broth dilution; assay type: cell-based
Experimental: (§2) MIC determination. MICs were measured using peptides with 95% purity. For bacterial studies, cation-adjusted Mueller Hinton (MH) broth was used as the growth medium whereas Yeast Peptone Dextrose (YPD; 10 g/L yeast extract, 20 g/L peptone, 20 g/L dextrose) was used for Candida spp. and other yeast. Microorganisms were diluted to an optical density of […] in MH or YPD broth and a 180 μl volume was mixed with 20 μl of peptide arrayed as a 2-fold dilution series in a flat-bottom 96-well microtitre plate. A control was performed using 20 μl of sterile water. Plates were incubated as standing cultures overnight at 37° C.
(§3) Determination of minimum inhibitory concentrations. The MICs were measured for bioactive peptides identified from the initial screen. For bacterial studies, cation-adjusted Mueller Hinton (MH) broth was used as the growth medium whereas YPD was used for C. albicans. Bacterial cultures were diluted to a OD value of 6×10^−4 in MH broth and a 180 μl volume was mixed with 20 μl of peptide arrayed as 2-fold dilution series in a 96-well plate. For the positive control, 20 μl of sterile water was used. Plates were incubated as standing cultures overnight at 37° C. The lowest peptide concentration that resulted no observed microbial growth after an overnight treatment was defined as the MIC.

[9] = tested on: Pseudomonas aeruginosa ATCC 27853; experiment: MIC, broth dilution; assay type: cell-based
Experimental: as §2, §3

Streptococcus agalactiae = experiment: MIC, broth dilution; assay type: cell-based; details: clinical isolate
Experimental: as §2, §3

[10] = tested on: Streptococcus zooepidermicus; experiment: MIC, broth dilution; assay type: cell-based; details: clinical isolate
Experimental: as §2, §3

[11] = tested on: Streptococcus dysagalactiae; experiment: MIC, broth dilution; assay type: cell-based; details: clinical isolate
Experimental: as §2, §3

Streptococcus equi = experiment: MIC, broth dilution; assay type: cell-based; details: clinical isolate
Experimental: as §2, §3

[12] = tested on: Enterococcus faecalis ATCC 2912; experiment: MIC, broth dilution; assay type: cell-based
Experimental: as §2, §3

S. scuri = experiment: MIC, broth dilution; assay type: cell-based; details: isolate from a healthy dairy cow
Experimental: as §2, §3

S. equorum = experiment: MIC, broth dilution; assay type: cell-based; details: isolate from a healthy dairy cow
Experimental: as §2, §3

S. auricularis = experiment: MIC, broth dilution; assay type: cell-based; details: isolate from a healthy dairy cow
Experimental: as §2, §3

Streptococcus canis = experiment: MIC, broth dilution; assay type: cell-based; details: clinical isolate
Experimental: as §2, §3

[13] = tested on: Mannheimia haemolytica (clinical, disease-causing isolate); experiment: MIC, broth dilution; assay type: cell-based; details: Table 7
Experimental: as §2, §3

S. epidermidis = experiment: MIC, broth dilution; assay type: cell-based; details: isolate from a healthy dairy cow
Experimental: as §2, §3

Pasteurella multocida = experiment: MIC, broth dilution; assay type: cell-based
Experimental: as §2, §3

Mycoplasma bovis = experiment: MIC, broth dilution; assay type: cell-based
Experimental: as §2, §3

[14] = tested on: Saccharomyces cerevisiae AR 400; experiment: MIC, YPD broth, CDC and FDA AR Candida isolate panel; assay type: cell-based; details: Table 9 top part: titrations from 1.56 to 100 μg/mL
Method in brief: (§4)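 Each isolate was diluted to an optical density of […] and combined with peptide at twofold stepwise concentrations. Plates then sat unshaken overnight at 37° C. Sterile water replaced peptide in control wells.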

[15] = tested on: Candida haemulonii AR 393; experiment: as above; assay type: cell-based; details: Table 9 top part: titrations from 1.56 to 100 μg/mL
Method in brief: as §4

Kodamae ohmeri AR 396 = experiment: as above; assay type: cell-based; details: Table 9 top part: titrations from 1.56 to 100 μg/mL
Method in brief: as §4

Candida krusei AR 397 = experiment: as above; assay type: cell-based; details: Table 9 top part: titrations from 1.56 to 100 μg/mL
Method in brief: as §4

[16] = tested on: Candida duobushaemulonii AR 391; experiment: as above; assay type: cell-based; details: Table 9 top part: titrations from 1.56 to 100 μg/mL
Method in brief: as §4

[17] = tested on: Candida duobushaemulonii AR 392; experiment: as above; assay type: cell-based; details: Table 9 top part: titrations from 1.56 to 100 μg/mL
Method in brief: as §4

[18] = tested on: Saccharomyces cerevisiae AR 399; experiment: as above; assay type: cell-based; details: Table 9 top part: titrations from 1.56 to 100 μg/mL
Method in brief: as §4

[19] = tested on: Candida lusitaniae AR 398; experiment: as above; assay type: cell-based; details: Table 9 top part: titrations from 1.56 to 100 μg/mL
Method in brief: as §4

[20] = tested on: Candida duobushaemulonii AR 394; experiment: as above; assay type: cell-based; details: Table 9 top part: titrations from 1.56 to 100 μg/mL
Method in brief: as §4

In the case of “TVGGLVKWILKTVKKFA-NH2 [STIP3-29, TVGGLVKWILKTVKKFA-NH2]”, the “MIC S. aureus ATCC BAA 1683 (IV)” value [1] is reported as 6.25 µg/mL, the “MIC S. aureus ATCC 29213” value (S. aureus ATCC 29213) is reported as 12.5 µg/mL and the “MIC S. aureus ATCC BAA 44 (I)” value [2] is reported as 6.25 µg/mL. The “MIC S. aureus ATCC 33592 (III)” value [3] was 6.25 µg/mL, the “MIC S. aureus ATCC BAA 42 (VI)” value [4] was 6.25 µg/mL and the “MIC S. aureus ATCC BAA 2313 (XI)” value [5] was 6.25 µg/mL. The “MIC S. aureus ATCC BAA 41 (II)” value [6] was 6.25 µg/mL, the “MIC” value [7] was 6.25 µg/mL and the “MIC S. aureus ATCC BAA 2094 (V)” value [8] was 6.25 µg/mL. The “MIC M. luteus” value (M. luteus ATCC 4698) was 1.56 µg/mL, the “MIC M. luteus” value (M. luteus ATCC 4698; molar) was 0.85 µM and the “fold improvement of activity (MIC)” value (M. luteus ATCC 4698; relative to STIP3-1, M. luteus) was 8 fold. The “MIC (μg/ml)” value (Klebsiella pneumoniae) was “> (> indicates no inhibition up to 50 μg/ml)”, the “MIC (μg/ml)” value [9] was “> (> indicates no inhibition up to 50 μg/ml)” and the “MIC” value (Streptococcus agalactiae) was 3.13 µg/mL. The “MIC” value [10] was 3.13 µg/mL, the “MIC” value [11] was 3.13 µg/mL and the “MIC” value (Streptococcus equi) was 3.13 µg/mL. The “MIC” value [12] was 12.5 µg/mL, the “MIC” value (S. scuri) was 3.13 µg/mL and the “MIC” value (S. equorum) was 3.13 µg/mL. For the same substance, the “MIC” value (S. auricularis) was 1.56 µg/mL, the “MIC” value (Streptococcus canis) was 6.25 µg/mL and the “MIC” value [13] was 6.25 µg/mL. The “MIC” value (S. epidermidis) was 3.13 µg/mL, the “MIC (μg/ml)” value (Pasteurella multocida) was “> (> indicates no inhibition up to 50 μg/ml)” and the “MIC (μg/ml)” value (Mycoplasma bovis) was “> (> indicates no inhibition up to 50 μg/ml)”. For the same substance, the “MIC (μg/mL) Saccharomyces cerevisiae AR 400” value [14] was 25 µg/mL, the “MIC (μg/mL) Candida haemulonii AR 393” value [15] was 200 µg/mL and the “MIC (μg/mL) Kodamae ohmeri AR 396” value (Kodamae ohmeri AR 396) was 50 µg/mL. The “MIC (μg/mL) Candida krusei AR 397” value (Candida krusei AR 397) was 50 µg/mL, the “MIC (μg/mL) Candida duobushaemulonii AR 391” value [16] was 25 µg/mL and the “MIC (μg/mL) Candida duobushaemulonii AR 392” value [17] was 50 µg/mL. The “MIC (μg/mL) Saccharomyces cerevisiae AR 399” value [18] was 50 µg/mL, the “MIC (μg/mL) Candida lusitaniae AR 398” value [19] was 25 µg/mL and the “MIC (μg/mL) Candida duobushaemulonii AR 394” value [20] was 100 µg/mL.
